Reference: patent publication US6509002B1, “Diagnostic agent for diabetes” (priority 1997, dated 2003)

Assay: ^13C breath test, intravenous administration (femoral vein), diabetic vs normal rats
Format: in vivo, rat
Conditions: for slope from 10 to 14 min after the administration / Δ^13C value (‰) at 20 min after the administration: 5 mg/kg from the femoral vein, Example 28
Excerpt: As test animals, male Sprague-Dawley strain (SD) neonatal rats were purchased from Nippon Charles River K. K. together with their lactating rats. […] Insulin secretion-deficient type diabetes was generated by administering streptozotocin (STZ) to neonatal rats (“Saibokogaku (Cell Engineering)”, Extra Issue, medical Experiment Manual Series, Strategy for Study of Diabetes, edited by Susumu Seino and Yoshikazu Oka, published by Shujunsha Co., Japan). STZ was subcutaneously administered to 2-day-old rats at a dose of 90 mg/kg. […] Two days after the administration, blood was collected by cardiac puncture, and the casual blood sugar level of each rat was measured with Terumo […] (blood sugar measurement set). […] Breath tests were carried out according to the method as described in (2)-1 or (2)-2 below on diabetic rats prepared in (1) above (8-10-week-old) and normal rats (8-10-week-old). […] A blood sample was collected from the tail vein, and its sugar level was determined using Terumo […] (blood sugar measurement set). […] Fine Science Tools Inc.).

[1] = diabetic rats, 10 mg/kg from the femoral vein, Example 34
[2] = normal rats, 10 mg/kg from the femoral vein, Example 34
[3] = diabetic rats, 20 mg/kg from the femoral vein, Example 12
[4] = normal rats, 20 mg/kg from the femoral vein, Example 12
[5] = diabetic rats, 10 mg/kg from the femoral vein, Example 9
[6] = normal rats, 10 mg/kg from the femoral vein, Example 9
[7] = diabetic rats, 50 mg/kg from the femoral vein, Example 14
[8] = normal rats, 50 mg/kg from the femoral vein, Example 14
[9] = diabetic rats, 10 mg/kg from the femoral vein, Example 25
[10] = normal rats, 10 mg/kg from the femoral vein, Example 25
[11] = diabetic rats, 20 mg/kg from the femoral vein, Example 23
[12] = normal rats, 20 mg/kg from the femoral vein, Example 23
[13] = diabetic rats (n=2), 20 mg/kg from the femoral vein, Example 18
[14] = normal rats, 20 mg/kg from the femoral vein, Example 18
[15] = diabetic rats, 20 mg/kg from the femoral vein, Example 22
[16] = normal rats, 20 mg/kg from the femoral vein, Example 22
[17] = diabetic rats, 20 mg/kg from the femoral vein, Example 8
[18] = normal rats, 20 mg/kg from the femoral vein, Example 8
[19] = diabetic rats, 50 mg/kg, printed as administered orally from the femoral vein, Example 19
[20] = normal rats, 50 mg/kg, printed as administered orally from the femoral vein, Example 19
[21] = diabetic rats, 30 mg/kg from the femoral vein, Example 32
[22] = normal rats, 30 mg/kg from the femoral vein, Example 32
[23] = diabetic rats, 70 mg/kg from the femoral vein, Example 30
[24] = normal rats, 70 mg/kg from the femoral vein, Example 30
[25] = diabetic rats, 50 mg/kg from the femoral vein, Example 31
[26] = normal rats, 50 mg/kg from the femoral vein, Example 31

C[13C](=O)OCC(CO[13C](C)=O)O[13C](C)=O [1,1,1-^13C-triacetin]
slope from 6 to 10 min after the administration [1]: −6.26±1.50 ‰/4 min | time course of Δ^13C values (‰) [1]: increased sharply up to about 8 min after the administration, but thereafter decreased gradually up to 20 min | Δ^13C value (‰) at 4 min after the administration [1]: 41.97±2.79 ‰ | slope from 6 to 10 min after the administration [2]: −0.83±0.90 ‰/4 min | time course of Δ^13C values (‰) [2]: continued increasing up to 20 min | Δ^13C value (‰) at 4 min after the administration [2]: 27.29±2.31 ‰

Cl.NCCC[13C@H](N)[13C](=O)O [1,2-^13C-ornithine hydrochloride]
slope from 2 to 7 min after the administration [3]: 87.79±12.93 ‰/5 min | time course of Δ^13C values (‰) [3]: increased up to about 14 min after the administration, and thereafter remained at an almost constant level up to 20 min | Δ^13C value (‰) at 10 min after the administration [3]: 155.70±17.99 ‰ | slope from 2 to 7 min after the administration [4]: 53.56±4.72 ‰/5 min | time course of Δ^13C values (‰) [4]: continued increasing up to 20 min | Δ^13C value (‰) at 10 min after the administration [4]: 100.71±5.97 ‰

O=C(O)CC(O)(C[13C](=O)O)[13C](=O)O (stereo not shown) [1,6-^13C-citric acid]
slope from 10 to 14 min after the administration (diabetic rats): −10.45±1.30 ‰/4 min | Δ^13C value (‰) at 20 min after the administration (diabetic rats): 54.38±3.34 ‰ | slope from 10 to 14 min after the administration (normal rats): −5.81±0.92 ‰/4 min | Δ^13C value (‰) at 20 min after the administration (normal rats): 67.49±1.82 ‰

C[C@H](N)[13C](=O)O [1-^13C-alanine]
slope from 5 to 15 min after the administration [5]: −52.09±19.38 ‰/10 min | time course of Δ^13C values (‰) [5]: sharply increased up to 4 min after the administration of 1-^13C-alanine, but thereafter decreased gradually up to 20 min | Δ^13C value (‰) at 10 min after the administration [5]: 161.35±6.670 ‰ | slope from 5 to 15 min after the administration [6]: −18.12±7.28 ‰/10 min | time course of Δ^13C values (‰) [6]: sharply increased up to 4 min after the administration of 1-^13C-alanine, but thereafter decreased gradually up to 20 min | Δ^13C value (‰) at 10 min after the administration [6]: 132.16±3.53 ‰

N=C(N)NCCC[C@H](N)[13C](=O)O [1-^13C-arginine]
slope from 2 to 7 min after the administration [7]: 146.90±18.97 ‰/5 min | time course of Δ^13C values (‰) [7]: increased up to about 12 min after the administration, but thereafter decreased gradually up to 20 min | Δ^13C value (‰) at 10 min after the administration [7]: 192.40±30.23 ‰ | slope from 2 to 7 min after the administration [8]: 75.02±10.01 ‰/5 min | time course of Δ^13C values (‰) [8]: continued increasing up to 20 min | Δ^13C value (‰) at 10 min after the administration [8]: 111.68±14.15 ‰

N[C@@H](CC(=O)O)[13C](=O)O [1-^13C-aspartic acid]
slope from 3 to 8 min after the administration [9]: −53.79±11.42 ‰/5 min | time course of Δ^13C values (‰) [9]: increased sharply up to about 2 min after the administration of 1-^13C-aspartic acid, but thereafter decreased gradually up to 20 min | Δ^13C value (‰) at 3 min after the administration [9]: 172.66±8.65 ‰ | slope from 3 to 8 min after the administration [10]: −8.13±10.84 ‰/5 min | time course of Δ^13C values (‰) [10]: increased sharply up to about 2 min after the administration of 1-^13C-aspartic acid, but thereafter decreased gradually up to 20 min | Δ^13C value (‰) at 3 min after the administration [10]: 126.56±13.45 ‰

N[C@@H](CS)[13C](=O)O [1-^13C-cysteine]
slope from 1 to 2 min after the administration [11]: 38.50±2.33 ‰/min | Δ^13C value (‰) at 2 min after the administration [11]: 42.87±2.09 ‰ | slope from 1 to 2 min after the administration [12]: 65.72±10.66 ‰/min | Δ^13C value (‰) at 2 min after the administration [12]: 78.97±13.98 ‰

O=C([13CH2]O)[C@@H](O)[C@H](O)[C@H](O)CO [1-^13C-fructose]
time course of Δ^13C values (‰) (rat, in vivo, 100 mg/kg): continued increasing up to 20 min

O=[13CH][C@H](O)[C@@H](O)[C@@H](O)[C@H](O)CO [1-^13C-galactose]
time course of Δ^13C values (‰) (rat, in vivo, 100 mg/kg): continued increasing up to 30 min

N[C@@H](CCC(=O)O)[13C](=O)O [1-^13C-glutamic acid]
time course of Δ^13C values (‰) (rat, in vivo, 10 mg/kg): increased sharply up to about 4 min after the administration of 1-^13C-glutamic acid, but thereafter decreased gradually up to 20 min

NC(=O)CC[C@H](N)[13C](=O)O [1-^13C-glutamine]
slope from 1 to 2 min after the administration [13]: 105.59 ‰/min | Δ^13C value (‰) at 5 min after the administration [13]: 168.18 ‰ | time course of Δ^13C values (‰) (diabetic rats, 20 mg/kg from the femoral vein, Example 18): increased sharply up to about 3 min after the administration, but thereafter decreased gradually up to 20 min | slope from 1 to 2 min after the administration [14]: 69.88±11.51 ‰/min | time course of Δ^13C values (‰) [14]: increased sharply up to about 3 min after the administration of 1-^13C-glutamine, and thereafter increased gradually up to 20 min | Δ^13C value (‰) at 5 min after the administration [14]: 107.17±15.42 ‰

NC[13C](=O)O [1-^13C-glycine]
time course of Δ^13C values (‰) [15]: increased sharply up to about 5 min after the administration, but thereafter decreased gradually up to 20 min | Δ^13C value (‰) at 7 min after the administration [15]: 156.62±10.83 ‰ | time course of Δ^13C values (‰) [16]: increased sharply up to about 5 min after the administration of 1-^13C-glycine, remained at an almost constant level up to about 12 min, but thereafter decreased gradually up to 20 min | Δ^13C value (‰) at 7 min after the administration [16]: 119.06±12.19 ‰

CC[C@H](C)[C@H](N)[13C](=O)O [1-^13C-isoleucine]
slope from 2 to 5 min after the administration [17]: 56.21±2.09 ‰/3 min | time course of Δ^13C values (‰) [17]: increased sharply up to about 9 min after the administration, but thereafter remained at an almost constant level up to 20 min | Δ^13C value (‰) at 5 min after the administration [17]: 83.92±5.53 ‰ | slope from 2 to 5 min after the administration [18]: 33.21±2.44 ‰/3 min | time course of Δ^13C values (‰) [18]: continued increasing up to 20 min | Δ^13C value (‰) at 5 min after the administration [18]: 46.98±3.24 ‰

CC(C)C[C@H](N)[13C](=O)O [1-^13C-leucine]
Δ^13C value (‰) at 5 min after the administration (diabetic rats (n=2), 10 mg/kg from the femoral vein, Example 24): 52.89±10.83 ‰ | Δ^13C value (‰) at 5 min after the administration (normal rats, 10 mg/kg from the femoral vein, Example 24): 42.56±2.43 ‰

Cl.NCCCC[C@H](N)[13C](=O)O [1-^13C-lysine hydrochloride]
slope from 15 to 20 min after the administration [19]: −26.64±5.36 ‰/5 min | time course of Δ^13C values (‰) [19]: increased up to about 10 min after the administration, but thereafter decreased gradually up to 20 min | Δ^13C value (‰) at 8 min after the administration [19]: 181.53±23.82 ‰ | slope from 15 to 20 min after the administration [20]: −4.58±6.91 ‰/5 min | time course of Δ^13C values (‰) [20]: increased up to about 11 min after the administration of 1-^13C-lysine hydrochloride, and thereafter remained at an almost constant level up to 20 min | Δ^13C value (‰) at 8 min after the administration [20]: 96.95±27.48 ‰

CCCCCCC[13C](=O)O [1-^13C-octanoic acid]
slope from 10 to 20 min after the administration [21]: −20.55±7.75 ‰/10 min | time course of Δ^13C values (‰) [21]: increased sharply up to about 5 min after the administration, but thereafter decreased gradually up to 20 min | slope from 10 to 20 min after the administration [22]: −4.76±4.41 ‰/10 min | time course of Δ^13C values (‰) [22]: increased sharply up to about 5 min after the administration of 1-^13C-octanoic acid, and thereafter remained at an almost constant level up to 20 min

CCCCCCCC/C=C\CCCCCCC[13C](=O)O [1-^13C-oleic acid]
slope from 10 to 20 min after the administration [23]: −12.79±3.72 ‰/10 min | time course of Δ^13C values (‰) [23]: increased sharply up to about 8 min after the administration, but thereafter decreased gradually up to 20 min | Δ^13C value (‰) at 8 min after the administration [23]: 132.93±7.09 ‰ | slope from 10 to 20 min after the administration [24]: 13.61±4.58 ‰/10 min | time course of Δ^13C values (‰) [24]: continued increasing up to 20 min | Δ^13C value (‰) at 8 min after the administration [24]: 86.51±14.72 ‰

CCCCCCCCCCCCCCC[13C](=O)O [1-^13C-palmitic acid]
slope from 10 to 20 min after the administration [25]: −4.40±2.21 ‰/10 min | time course of Δ^13C values (‰) [25]: increased sharply up to about 5 min after the administration, but thereafter decreased gradually up to 20 min | slope from 10 to 20 min after the administration [26]: 1.43±1.33 ‰/10 min | time course of Δ^13C values (‰) [26]: continued increasing up to 20 min
